Measurements taken from patent US7601737B2, “Isotopically substituted proton pump inhibitors” (priority 2005, dated 2009).

Assays:
CYP3A4 = CYP3A4 (Homo sapiens, UniProt P08684); assay: Metabolic clearance in recombinant human cytochrome P450 CYP3A4; conditions: recombinant P450 1 nmol/mL, disappearance of parent compound; lower limit of assay resolution 17.6 μl/min/nmol P450
Description: In order to evaluate the properties of the compounds according to the invention the compounds' intrinsic clearances in recombinant human cytochrome P450 (CYP) isoenzymes CYP1A2, CYP2C8, CYP2C19, CYP2D6, CYP3A4, and CYP3A5 were determined.
Incubations were carried out in triplicate. […] The intrinsic clearance was determined based on the rate of disappearance of parent compound. Pantoprazole, omeprazole and the deuterated analogues were determined by HPLC-UV. The lower limit of assay resolution based on experimental variability was 17.6 μl/min/nmol P450.

[1] = test system: human cryopreserved hepatocytes; assay: in vitro; conditions: human, hepatocytes
From the text: (§1) 5-hydroxy-omeprazole was quantified using LC-MS/MS.

in vitro = conditions: human, hepatocytes
From the text: as §1

CYP2C19 = target: T1, CYP2C19 (Homo sapiens, UniProt P33261); assay: Metabolic clearance in recombinant human cytochrome P450 CYP2C19; assay type: in vitro ADME; conditions: recombinant P450 0.5 nmol/mL, disappearance of parent compound; lower limit of assay resolution 17.6 μl/min/nmol P450
T1 construct: purchased Cypex, Dundee, UK
Description: Incubations were carried out in triplicate.

[2] = test system: human cryopreserved hepatocytes; conditions: human, 60 min
Description: Following the evaluation of the metabolic clearance of the compounds according to the invention via P450 enzymes, the formation kinetics of the main metabolite identified in humans, i.e. M2 (5-(difluoromethoxy)-2-[[(3-methoxy-4-sulfate-2-pyridyl)-methyl]sulfinyl]-1H-benzimidazole) was determined. Because the generation of M2 involves the oxidation of the 4-methoxy-pyridyl group by CYP2C19 and subsequent conjugation with 3′-phosphoadenosine-5′-phosphosulfate (PAPS) by an unidentified sulphotransferase, human cryopreserved hepatocytes were used since both phase I and phase II enzymes are functional in this in vitro system.
M2 formation rate under these conditions was linear up to 60 min. The M2 formation rate was determined at nine different compound concentrations (0, 0.5, 1.0, 2.5, 5.0, 10.0, 25.0, 50.0 and 100 μMol/L) incubated in duplicate for 60 min at 37° C. M2 was quantified using LC-MS/MS. M2 isolated from human urine was used as an external standard. The concentration to reach the half-maximal formation rate (KM-value) and the maximal formation rate (Vmax) were obtained by non-linear regression analysis using the Michaelis-Menten equation. The intrinsic clearance (Clint) was obtained dividing Vmax over KM.

[3] = Metabolisation in liver microsomes (guinea pig); assay type: in vitro ADME; conditions: Guinee pig liver microsomes, 10 μM, 90 minutes incubation
Description: (§2) Pantoprazole or examples 1 or 2 (10 μM each) were incubated with liver microsomes (source: all from GenTest except Mini Pig from TEBU),incubation in 1 mg/ml protein, 100 mM Tris-HCl, pH 7.4, 1 mM NADPH2). Reaction was terminated after 90 minutes by liquid nitrogen, the parent compound was detected by HPLC (10 mM KH2PO4, pH 7.4, acetonitril gradient 20-44%).

[4] = Metabolisation in liver microsomes (mini pig); assay type: in vitro ADME; conditions: 10 μM, 90 minutes incubation
Description: as §2

[5] = Metabolisation in liver microsomes (dog); assay type: in vitro ADME; conditions: 10 μM, 90 minutes incubation
Description: as §2

[6] = Metabolisation in liver microsomes (rat); assay type: in vitro ADME; conditions: 10 μM, 90 minutes incubation
Description: as §2

[7] = Metabolisation in liver microsomes (monkey); assay type: in vitro ADME; conditions: 10 μM, 90 minutes incubation
Description: as §2

[8] = Metabolisation in liver microsomes (mouse); assay type: in vitro ADME; conditions: 10 μM, 90 minutes incubation
Description: as §2

[9] = Metabolisation in liver microsomes (human); assay type: in vitro ADME; conditions: 10 μM, 90 minutes incubation
Description: as §2

T1 sequence (P33261 whole entry): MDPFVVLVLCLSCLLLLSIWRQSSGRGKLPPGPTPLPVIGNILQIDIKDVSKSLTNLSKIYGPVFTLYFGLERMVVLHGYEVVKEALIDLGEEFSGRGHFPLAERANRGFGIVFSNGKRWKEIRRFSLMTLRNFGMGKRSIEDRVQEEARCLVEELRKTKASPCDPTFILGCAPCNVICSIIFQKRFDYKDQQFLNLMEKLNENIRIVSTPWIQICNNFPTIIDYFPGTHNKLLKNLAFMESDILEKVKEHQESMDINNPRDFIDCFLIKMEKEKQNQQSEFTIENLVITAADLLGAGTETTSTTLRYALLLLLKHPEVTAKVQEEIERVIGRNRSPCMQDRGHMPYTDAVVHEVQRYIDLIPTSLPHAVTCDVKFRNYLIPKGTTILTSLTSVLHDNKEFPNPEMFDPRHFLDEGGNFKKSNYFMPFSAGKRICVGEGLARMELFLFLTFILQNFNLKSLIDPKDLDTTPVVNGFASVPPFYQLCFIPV
Sequence of CYP3A4 (P08684 whole entry): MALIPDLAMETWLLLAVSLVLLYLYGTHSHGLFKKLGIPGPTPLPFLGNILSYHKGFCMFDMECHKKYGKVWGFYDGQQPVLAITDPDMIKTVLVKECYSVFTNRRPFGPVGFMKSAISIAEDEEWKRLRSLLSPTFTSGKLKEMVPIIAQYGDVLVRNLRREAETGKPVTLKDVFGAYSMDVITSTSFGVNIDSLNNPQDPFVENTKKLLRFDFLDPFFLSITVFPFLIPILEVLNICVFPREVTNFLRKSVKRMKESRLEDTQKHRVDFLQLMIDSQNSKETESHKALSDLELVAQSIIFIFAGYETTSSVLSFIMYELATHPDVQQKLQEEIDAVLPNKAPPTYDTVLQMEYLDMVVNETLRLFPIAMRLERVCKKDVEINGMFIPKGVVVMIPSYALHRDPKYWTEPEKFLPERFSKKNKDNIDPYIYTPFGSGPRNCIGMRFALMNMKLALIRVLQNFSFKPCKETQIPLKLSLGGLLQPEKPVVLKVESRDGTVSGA

% Σ Clint rac. Omeprazole [1] [%] | hepatocyte CLint (in vitro) [µL/min/1e6 cells] | Compound | Contribution of CYP3A4 to the oxidative metabolism (CYP3A4) | Contribution of CYP2C19 to the oxidative metabolism (CYP2C19) | Substrate concentrations at which formation of M2 appeared to be inhibited [2] | Percent of compound metabolized [3] [%] | Percent of compound metabolized [4] [%] | Percent of compound metabolized [5] [%] | Percent of compound metabolized [6] [%] | Percent of compound metabolized [7] [%] | Percent of compound metabolized [8] [%] | Percent of compound metabolized [9] [%]
100 | 2 | COc1ccc2[nH]c([S+]([O-])Cc3ncc(C)c(OC)c3C)nc2c1 (racemic) [rac. Omeprazole, 5-methoxy-2-[(4-methoxy-3,5-dimethyl-2-pyridinyl)methylsulphinyl]-1H-benzimidazole, reference compound] | contribute to the oxidative metabolism | contribute to the oxidative metabolism |  |  |  |  |  |  |  | 
 |  | COc1ccnc(C[S+]([O-])c2nc3ccc(OC(F)F)cc3[nH]2)c1OC (centres unmarked) [H-Pantoprazole, 5-difluoromethoxy-2-[(3,4-dimethoxy-2-pyridinyl)methylsulphinyl]-1H-benzimidazole, reference compound] | contribute to the oxidative metabolism | contribute to the oxidative metabolism | above 100 μM | 78 | 26 | 20 | 61 | 73 | 62 | 28
